Results: patent US20240148707A1, “MODULATION OF DRUG-DRUG INTERACTIONS OF VADADUSTAT” (Akebia Therapeutics, Inc., priority 2021, published 2024)
Read-outs that look alike come from different tables or passages of the source.

Legend:
[1] = test system: UGT1A1, UGT1A7, UGT1A8 and UGT1A9; test: UGT isoforms generating the O-glucuronide (in vitro); assay type: in vitro ADME, human
UGT1A1 = biological target: T1, UGT1A1 (Homo sapiens, UniProt P22309); test: Enzyme inhibition (in vitro); assay type: in vitro ADME
T1 sequence (P22309 26-533): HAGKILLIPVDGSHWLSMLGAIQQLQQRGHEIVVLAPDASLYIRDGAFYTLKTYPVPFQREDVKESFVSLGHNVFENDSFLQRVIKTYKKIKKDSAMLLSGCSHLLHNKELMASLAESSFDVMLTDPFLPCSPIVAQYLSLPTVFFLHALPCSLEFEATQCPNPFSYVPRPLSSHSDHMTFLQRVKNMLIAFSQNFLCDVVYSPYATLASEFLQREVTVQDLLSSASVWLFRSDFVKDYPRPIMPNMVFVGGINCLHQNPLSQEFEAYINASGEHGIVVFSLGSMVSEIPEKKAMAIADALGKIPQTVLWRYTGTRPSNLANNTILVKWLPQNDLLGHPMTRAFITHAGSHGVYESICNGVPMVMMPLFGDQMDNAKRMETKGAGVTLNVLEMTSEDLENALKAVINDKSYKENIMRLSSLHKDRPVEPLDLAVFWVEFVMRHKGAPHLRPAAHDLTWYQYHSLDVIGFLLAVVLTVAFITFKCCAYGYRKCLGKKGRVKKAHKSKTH

[2] = Phase I drug-drug interaction study with sevelamer carbonate; assay type: in vivo, human; details: for clearance: read-out: Clearance (ClB) (converted); for Vd: read-out: Volume of distribution (Vc); for Tmax: median (minimum, maximum)
Description: A phase I, open-label, fixed-sequence study was conducted in healthy adult subjects to assess the effect of sevelamer carbonate as phosphate binders on the pharmacokinetics of a single dose of vadadustat.
Pharmacokinetics. A predose PK blood sample was collected on Day 1. After each dose of vadadustat administered (Days 1, 3, 5, and 7), blood samples for PK analysis were collected at the following time points: predose and 0.5, 1, 1.5, 2, 3, 4, 6, 9, 12, 16, 24, and 48 hours after each dose of vadadustat. The 48-hour postdose sample was collected before vadadustat administration on Days 3, 5, and 7. The following parameters were calculated and analyzed: AUC0-∞, AUC0-last, Cmax, Tmax, Kel, CIB, Vc/F, and t1/2.
Subjects were dosed approximately at the same designated time on each dosing day, where applicable. Study drugs were administered with approximately 8 ounces (240 mL) of water at room temperature in a seated position. Subjects were instructed to drink the full 8 ounces of water, and not to chew or break the tablets/gelcaps.
A single oral dose of vadadustat 300 mg (2×150 mg tablets) was administered on Days 1, 3, 5, and 7. Phosphate binder that is sevelamer carbonate (1600 mg, 2×800 mg tablets) was administered on Days 3, 5, and 7.
The 9-day treatment period was conducted as follows: • Day 1: vadadustat administered immediately after consuming breakfast. • Day 2: wash-out (no investigational product administration). • Day 3: vadadustat administered concomitantly with the requisite phosphate binder immediately after consuming breakfast. • Day 4: wash-out (no investigational product administration). • Day 5: vadadustat administered in fasted condition and the phosphate binder administered 1 hour later (breakfast must be served within 2 minutes after phosphate binder administration and consumed immediately after it is served). • Day 6: wash-out (no investigational product administration). • Day 7: phosphate binder administered immediately after consuming breakfast; vadadustat administered 2 hours after the phosphate binder was administered. • Day 8: wash-out (no investigational product administration). • Day 9: subjects discharged from the Clinical Research Unit (CRU) after the 48-hour postdose PK blood sample has been collected.

[3] = Phase I drug-drug interaction study with probenecid (Part 1, Arm 2); assay type: in vivo, human; details: for AUC(0-inf) / AUC(0-t) / Cmax: both sexes, human, plasma, fasted
Description: A phase I, open-label, 2-part study was conducted in healthy male and female subjects to evaluate the potential for interaction of cyclosporine (Part 1, Arm 1), probenecid (Part 1, Arm 2), and rifampin (Part 2) with vadadustat.
On the morning of Day 1, subjects received a single oral dose of vadadustat (300 mg) as 2×150 mg tablets after at least a 10-hour overnight fast and remained fasted for at least 4 hours post-dose. Following a 2-day washout (Days 1 to 2), subjects received 1 oral probenecid 500 mg tablet Q12 h for 4 days (Days 3 to 6). On days that probenecid was administered alone (Days 3, 4, and 6), probenecid was administered in a fasted state 1 hour prior to a standard breakfast and 1 hour prior to an evening meal or snack. On Day 5, probenecid was co-administered with a single dose of vadadustat (300 mg as 2×150 mg tablets) following at least a 10-hour fast. Subjects remained fasted for at least 4 hours after dosing.
On days vadadustat was administered (Day 1 and Day 5), blood samples for PK analysis were collected up to 48 hours postdose. In addition, on vadadustat dosing days, pooled urine samples were collected up to 24 hours post-dose. Subjects were discharged from the CRU on the morning of Day 7, after the final 48-hour post-dose PK sample had been collected. A follow-up phone call was conducted 30 days±2 days after the final dose.

[4] = concomitant administration of phosphate binder vs vadadustat alone, ANOVA
[5] = human, plasma, oral, 300 mg, vadadustat 300 mg alone, immediately after breakfast, mean ± SD
[6] = human, plasma, oral, vadadustat 300 mg 2 hours after sevelamer carbonate 1600 mg with breakfast, mean ± SD
[7] = human, plasma, oral, vadadustat 300 mg concomitantly with sevelamer carbonate 1600 mg, immediately after breakfast, mean ± SD
[8] = human, plasma, oral, vadadustat 300 mg fasting, 1 hour prior to sevelamer carbonate 1600 mg, mean ± SD
[9] = vadadustat 300 mg alone, immediately after breakfast, mean ± SD

- UGT isoforms involved in the generation of the O-glucuronide [1]: UGT1A1, UGT1A7, UGT1A8 and UGT1A9
- inhibitory effect on UGT1A1 (UGT1A1): inhibitory effect
- reduction of vadadustat AUC0-last [2, 4]: about 37%
- reduction of vadadustat AUC0-∞ [2, 4]: about 37%
- reduction of vadadustat Cmax [2, 4]: about 40%
- AUC(0-t) [2, 5]: 185 ± 57.3 µg·h/mL
- AUC(0-inf) ([2]; human, plasma, oral, 300 mg, vadadustat 300 mg alone, immediately after breakfast, mean ± SD, read-out: AUC0-∞): 190 ± 57.2 µg·h/mL
- clearance [2, 5]: 28.8 mL/min
- Vd [2, 5]: 11.5 ± 2.84 L
- Tmax ([2]; human, plasma, oral, 300 mg, vadadustat 300 mg alone, immediately after breakfast): 3.97 h
- AUC(0-inf) ([2]; human, plasma, oral, concurrent vadadustat and sevelamer carbonate, read-out: geometric LS mean AUC0-∞): 114 µg·h/mL
- AUC(0-t) [2, 6]: 151 ± 57.5 µg·h/mL
- AUC(0-inf) ([2]; human, plasma, oral, vadadustat 300 mg 2 hours after sevelamer carbonate 1600 mg with breakfast, mean ± SD, read-out: AUC0-∞): 154 ± 57.8 µg·h/mL
- clearance [2, 6]: 38.3 mL/min
- half-life ([2]; human, plasma, oral, vadadustat 300 mg 2 hours after sevelamer carbonate 1600 mg with breakfast, mean ± SD, read-out: Elimination half-life (t1/2) (converted)): 5.1 ± 0.97 h
- Vd [2, 6]: 16.4 ± 7.04 L
- Tmax ([2]; human, plasma, oral, vadadustat 300 mg 2 hours after sevelamer carbonate 1600 mg with breakfast): 2.99 h
- AUC(0-t) [2, 7]: 121 ± 50.4 µg·h/mL
- AUC(0-inf) ([2]; human, plasma, oral, vadadustat 300 mg concomitantly with sevelamer carbonate 1600 mg, immediately after breakfast, mean ± SD, read-out: AUC0-∞): 124 ± 51 µg·h/mL
- clearance [2, 7]: 48 mL/min
- Cmax ([2]; human, plasma, oral, vadadustat 300 mg concomitantly with sevelamer carbonate 1600 mg, immediately after breakfast, mean ± SD, read-out: Cmax): 16600 ± 5750 ng/mL
- Vd [2, 7]: 19.4 ± 10.1 L
- Tmax ([2]; human, plasma, oral, vadadustat 300 mg concomitantly with sevelamer carbonate 1600 mg, immediately after breakfast): 3.49 h
- AUC(0-t) [2, 8]: 152 ± 46.2 µg·h/mL
- AUC(0-inf) ([2]; human, plasma, oral, vadadustat 300 mg fasting, 1 hour prior to sevelamer carbonate 1600 mg, mean ± SD, read-out: AUC0-∞): 156 ± 48.5 µg·h/mL
- clearance [2, 8]: 35.7 mL/min
- Cmax ([2]; human, plasma, oral, vadadustat 300 mg fasting, 1 hour prior to sevelamer carbonate 1600 mg, mean ± SD, read-out: Cmax): 31300 ± 10600 ng/mL
- Vd [2, 8]: 13.6 ± 5.04 L
- Tmax ([2]; human, plasma, oral, vadadustat 300 mg fasting, 1 hour prior to sevelamer carbonate 1600 mg): 1.49 h
- Cmax [2, 9]: 26700 ± 6610 ng/mL
- Elimination half-life (t1/2) [2, 9]: 4.81 ± 1.15 h
- Elimination half-life (t1/2) ([2]; vadadustat 300 mg concomitantly with sevelamer carbonate 1600 mg, immediately after breakfast, mean ± SD): 4.70 ± 0.90 h
- AUC(0-inf) ([3]; oral, vadadustat 300 mg single dose + probenecid 500 mg Q12h (multiple doses), read-out: AUCinf, geometric LSM, Treatment V + P): 427 µg·h/mL
- AUC(0-t) ([3]; oral, vadadustat 300 mg single dose + probenecid 500 mg Q12h (multiple doses), read-out: AUClast, geometric LSM, Treatment V + P): 417 µg·h/mL
- Cmax ([3]; oral, vadadustat 300 mg single dose + probenecid 500 mg Q12h (multiple doses), read-out: Cmax, geometric LSM, Treatment V + P): 48800 ng/mL
- AUC(0-inf) ([3]; vadadustat 300 mg alone, single oral dose, read-out: AUCinf, geometric LSM, Treatment V): 234 µg·h/mL
- AUC(0-t) ([3]; vadadustat 300 mg alone, single oral dose, read-out: AUClast, geometric LSM, Treatment V): 233 µg·h/mL
- Cmax ([3]; vadadustat 300 mg alone, single oral dose, read-out: Cmax, geometric LSM, Treatment V): 47500 ng/mL
- change of Cmax values ([3]; in combination with probenecid): relatively unchanged
- urinary excretion ([3]; in combination with probenecid): decreased
Compound: O=C(O)CNC(=O)c1ncc(-c2cccc(Cl)c2)cc1O [Compound 1, {[5-(3-chlorophenyl)-3-hydroxypyridine-2-carbonyl]amino}acetic acid]
- changes in vadadustat exposure ([2]; vadadustat administered 1 hour prior to sevelamer carbonate): within the prespecified no-effect boundaries of 80% to 125%
- changes in vadadustat exposure ([2]; vadadustat administered 2 hours after sevelamer carbonate): within the prespecified no-effect boundaries of 80% to 125%
- tolerability ([3]; during treatment with probenecid, healthy subjects): tolerated
